Experimental data taken from patent publication US7238685B2, “Benzo-fused heterocycles as endothelin antagonists” (Actelion Pharmaceuticals Ltd., priority 2001, dated 2007).
Where two headings read alike, the source gives them in different places.

Assays:
[1] = target: T1, human recombinant ETB receptors (Homo sapiens, UniProt P24530); assay: Inhibition of endothelin binding to membranes from CHO cells carrying human ET receptors (ETB)
T1 construct: expressed in transfected cells; host or cells: CHO cells (microsomal membranes)
T1 sequence (P24530 27-442): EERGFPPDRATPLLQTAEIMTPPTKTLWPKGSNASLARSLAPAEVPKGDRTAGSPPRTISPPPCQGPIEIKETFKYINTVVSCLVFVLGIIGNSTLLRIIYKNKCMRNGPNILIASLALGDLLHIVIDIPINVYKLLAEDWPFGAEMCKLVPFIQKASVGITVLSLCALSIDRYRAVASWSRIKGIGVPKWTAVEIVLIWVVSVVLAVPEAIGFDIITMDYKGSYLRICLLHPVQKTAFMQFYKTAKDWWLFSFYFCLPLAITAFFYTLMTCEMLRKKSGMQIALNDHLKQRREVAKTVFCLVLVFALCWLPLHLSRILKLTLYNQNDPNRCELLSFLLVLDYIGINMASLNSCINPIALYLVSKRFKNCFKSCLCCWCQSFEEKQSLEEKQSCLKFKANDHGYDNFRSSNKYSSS

[2] = target: T2, human recombinant ETA receptors (Homo sapiens, UniProt P25101); assay: Inhibition of endothelin binding to membranes from CHO cells carrying human ET receptors (ETA)
T2 construct: expressed in transfected cells; host or cells: CHO cells (microsomal membranes)
T2 sequence (P25101 21-427): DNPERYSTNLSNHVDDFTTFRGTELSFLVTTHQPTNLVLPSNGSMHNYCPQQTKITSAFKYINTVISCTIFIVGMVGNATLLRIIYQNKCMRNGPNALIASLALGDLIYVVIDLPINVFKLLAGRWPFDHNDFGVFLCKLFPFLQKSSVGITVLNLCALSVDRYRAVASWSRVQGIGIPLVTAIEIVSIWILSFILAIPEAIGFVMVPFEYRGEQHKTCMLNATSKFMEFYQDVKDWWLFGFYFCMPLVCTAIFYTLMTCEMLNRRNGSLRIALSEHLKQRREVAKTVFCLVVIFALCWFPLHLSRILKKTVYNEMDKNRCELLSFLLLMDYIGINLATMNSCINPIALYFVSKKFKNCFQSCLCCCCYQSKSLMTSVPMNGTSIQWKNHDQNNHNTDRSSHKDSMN

[3] = target: T3, rat aortic rings (ETA receptors) (Rattus norvegicus, UniProt P26684); assay: Inhibition of endothelin-1-induced contractions on isolated rat aortic rings; details: read-out: pA2 (aortic rings) (converted)
T3 construct: from tissue; host or cells: thoracic aorta rings of adult Wistar rats, endothelium removed
T3 sequence (P26684 21-426): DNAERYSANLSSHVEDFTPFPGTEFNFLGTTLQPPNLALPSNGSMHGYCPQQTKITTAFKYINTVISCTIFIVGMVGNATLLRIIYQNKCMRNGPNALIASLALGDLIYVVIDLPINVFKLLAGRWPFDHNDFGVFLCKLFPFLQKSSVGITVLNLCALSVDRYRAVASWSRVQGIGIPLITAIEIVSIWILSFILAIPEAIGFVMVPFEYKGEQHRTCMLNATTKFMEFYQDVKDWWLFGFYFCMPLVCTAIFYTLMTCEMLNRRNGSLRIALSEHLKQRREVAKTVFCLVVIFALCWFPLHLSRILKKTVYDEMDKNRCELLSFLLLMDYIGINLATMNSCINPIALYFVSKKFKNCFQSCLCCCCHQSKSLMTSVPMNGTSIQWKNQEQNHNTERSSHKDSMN
Experimental: The functional inhibitory potency of the endothelin antagonists was assessed by their inhibition of the contraction induced by endothelin-1 on rat aortic rings (ETA receptors) and of the contraction induced by sarafotoxin S6c on rat tracheal rings (ETB receptors). Adult Wistar rats were anesthetized and exsanguinated. The thoracic aorta or trachea were excised, dissected and cut in 3–5 mm rings. The endothelium/epithelium was removed by gentle rubbing of the intimal surface. Each ring was suspended in a 10 ml isolated organ bath filled with Krebs-Henseleit solution (in mM; NaCl 115, KCl 4.7, MgSO4 1.2, KH2PO4 1.5, NaHCO3 25, CaCl2 2.5, glucose 10) kept at 37° C. and gassed with 95% O2 and 5% CO2. The rings were connected to force transducers and isometric tension was recorded (EMKA Technologies SA, Paris, France). The rings were stretched to a resting tension of 3 g (aorta) or 2 g (trachea). […] The functional inhibitory potency of the test compound was assessed by calculating the concentration ratio, i.e. the shift to the right of the EC50 induced by different concentrations of test compound. EC50 is the concentration of endothelin needed to get a half-maximal contraction, pA2 is the negative logarithm of the antagonist concentration which induces a two-fold shift in the EC50 value.

Compound	IC50 ([1]; read-out: IC50 ETB)	IC50 ([2]; read-out: IC50 ETA)	Kb [3]	IC50 [1]	IC50 [2]
Cc1cc(C)nc(O[C@H](C(=O)O)[C@@]2(c3ccccc3)NCC(=O)N(C)c3ccccc32)n1 (racemic) [Example 49, (±)-(S*)-(4,6-dimethyl-pyrimidin-2-yloxy)-((5S*)-1-methyl-2-oxo-5-phenyl-2,3,4,5-tetrahydro-1H-benzo[e][1,4]diazepin-5-yl)-acetic acid]	240 nM	17 nM			
Cc1cc(C)nc(O[C@H](C(=O)O)[C@@]2(c3ccccc3)NCC(=O)N(CC(=O)O)c3ccccc32)n1 (racemic) [Example 50, (±)-(S*)-((5S*)-1-Carboxymethyl-2-oxo-5-phenyl-2,3,4,5-tetrahydro-1H-benzo[e][1,4]diazepin-5-yl)-(4,6-dimethyl-pyrimidin-2-yloxy)-acetoc acid]	507 nM	12 nM			
Cc1cc(C)c(CN2C(=O)CN[C@](c3ccccc3)([C@H](Oc3nc(C)cc(C)n3)C(=O)O)c3ccccc32)c(C)c1 (racemic) [Example 111]	10 nM	3 nM			
COc1ccc(CN2C(=O)CN[C@](c3ccc(F)c(C)c3)([C@H](Oc3nc(C)cc(C)n3)C(=O)O)c3ccccc32)cc1 (racemic) [Example 218, (±)-(S*)-(4,6-Dimethyl-pyrimidin-2-yloxy)-[(5S*)-5-(4-fluoro-3-methyl-phenyl)-1-(4-methoxy-benzyl)-2-oxo-2,3,4,5-tetrahydro-1H-benzo[e][1,4]diazepin-5-yl]-acetic acid]	39 nM	5 nM			
COc1cc(CN2C(=O)CN[C@](c3ccccc3)([C@H](Oc3nc(C)cc(C)n3)C(=O)O)c3ccccc32)cc(OC)c1 (racemic) [Example 51, (±)-(S*)-[(5S*)-1-(3,5-Dimethoxy-benzyl)-2-oxo-5-phenyl-2,3,4,5-tetra-hydro-1H-benzo[e][1,4]diazepin-5-yl]-(4,6-dimethyl-pyrimidin-2-yloxy)-acetic acid]	26 nM	7 nM	40.7 nM		
Cc1cc(C)nc(O[C@H](C(=O)O)[C@]2(c3ccccc3)c3ccccc3N(Cc3c(F)cc(F)cc3F)C(=O)CN2C)n1 (racemic) [Example 129, (±)-(S*)-(4,6-Dimethyl-pyrimidin-2-yloxy)-[(5S*)-4-methyl-2-oxo-5-phenyl-1-(2,4,6-trifluoro-benzyl)-2,3,4,5-tetrahydro-1H-benzo[e][1,4]diazepin-5-yl]-acetic acid]	353 nM	6 nM			
Cc1cc(C)nc(O[C@H](C(=O)O)[C@@]2(c3ccccc3)NCc3nnc(CC(=O)O)n3-c3ccccc32)n1 (racemic) [Example 27, (±)-(S*)-((6S*)-1-carboxymethyl-6-phenyl-5,6-dihydro-4H-2,3,5,10b-tetraaza-benzo[e]azulen-6-yl)-(4,6-dimethyl-pyrimidin-2-yloxy)-acetic acid]				126 nM	13 nM
Cc1cc(C)nc(O[C@H](C(=O)O)[C@@]2(c3ccccc3)NCC(=O)N(CCO)c3ccccc32)n1 (racemic) [Example 56, (±)-(S*)-(4,6-Dimethyl-pyrimidin-2-yloxy)-[(5S*)-1-(2-hydroxy-ethyl)-2-oxo-5-phenyl-2,3,4,5-tetrahydro-1H-benzo[e][1,4]diazepin-5-yl]-acetic acid]				83 nM	4 nM
Cc1cc(C)nc(O[C@H](C(=O)O)[C@@]2(c3ccccc3)NCC(=O)N(CCc3ccccc3)c3ccccc32)n1 (racemic) [Example 78]	23 nM	3 nM			
Cc1cccc([C@]2([C@H](Oc3nc(C)cc(C)n3)C(=O)O)NCC(=O)N(C)c3ccccc32)c1 (racemic) [Example 187, (±)-(S*)-(4,6-Dimethyl-pyrimidin-2-yloxy)-[(5S*)-1-methyl-2-oxo-5-m-tolyl-2,3,4,5-tetrahydro-1H-benzo[e][1,4]diazepin-5-yl]-acetic acid]	180 nM	18 nM			
COC(=O)[C@@H](c1ccccc1)N1C(=O)CN[C@](c2ccccc2)([C@H](Oc2nc(C)cc(C)n2)C(=O)O)c2ccccc21 (relative stereo) [Example 52, (±)-(S*)-(4,6-Dimethyl-pyrimidin-2-yloxy)-[(5S*)-1-((R/S)-methoxycarbonyl-phenyl-methyl)-2-oxo-5-phenyl-2,3,4,5-tetrahydro-1H-benzo[e][1,4]diazepin-5-yl]-acetic acid]	23 nM	11 nM			
Cc1cc(C)nc(O[C@H](C(=O)O)[C@@]2(c3ccccc3)NCC(=O)N(C)c3ccc(Cl)cc32)n1 (racemic) [Example 170, (±)-(1S*)-((5S*)-7-Chloro-1-methyl-2-oxo-5-phenyl-2,3,4,5-tetra-hydro-1H-benzo[e][1,4]diazepin-5-yl)-(4,6-dimethyl-pyrimidin-2-yloxy)-acetic acid]	368 nM	15 nM			
COc1cc(OC)nc(O[C@H](C(=O)O)[C@@]2(c3ccccc3)NCC(=O)N(C)c3ccccc32)n1 (racemic) [Example 39, (±)-(S*)-((5S*)-1-methyl-2-oxo-5-phenyl-2,3,4,5-tetrahydro-1H-benzo[e][1,4]di-azepin-5-yl)-(4,6-dimethoxy-pyrimidin-2-yloxy)-acetic acid]	701 nM	29 nM			
Cc1cc(C)nc(O[C@H](C(=O)O)[C@@]2(c3ccccc3)NCC(=O)N(CCc3cn(C)c4ccccc34)c3ccccc32)n1 (racemic) [Example 68]	4 nM	1 nM			
CCCCc1ccc(CN2C(=O)CN[C@](c3cccc(CCCC)c3)([C@H](Oc3nc(C)cc(C)n3)C(=O)O)c3ccccc32)cc1 (racemic) [Example 223]	12 nM	7 nM			
Cc1cc(C)nc(O[C@H](C(=O)O)[C@@]2(c3cccc(-c4ccccc4)c3)NCC(=O)N(Cc3c(F)ccc(F)c3F)c3ccccc32)n1 (racemic) [Example 213]	29 nM	3 nM			
Cc1cc(C)nc(O[C@H](C(=O)O)[C@@]2(c3ccccc3)NCC(=O)N(c3ccccc3)c3ccccc32)n1 (racemic) [Example 117, (±)-(S*)-(4,6-dimethyl-pyrimidin-2-yloxy)-[(5S*)-2-oxo-1,5-diphenyl-2,3,4,5-tetrahydro-1H-benzo[e][1,4]diazepin-5-yl]-acetic acid]	749 nM	61 nM			
COc1cc(CN2C(=O)CN[C@](c3ccccc3)([C@H](Oc3nc(OC)cc(OC)n3)C(=O)O)c3cc(Cl)ccc32)cc(OC)c1 (racemic) [Example 167, (±)-(1S*)-[(5S*)-7-Chloro-1-(3,5-dimethoxy-benzyl)-2-oxo-5-phenyl-2,3,4,5-tetrahydro-1H-benzo[e][1,4]diazepin-5-yl]-(4,6-dimethoxy-pyrimidin-2-yloxy)-acetic acid]	947 nM	36 nM			
COC(=O)c1ccc(CN2C(=O)CN[C@](c3ccccc3)([C@H](Oc3nc(C)cc(C)n3)C(=O)O)c3ccccc32)cc1 (racemic) [Example 58, (±)-4-{(5S*)-5-[(S*)-Carboxy-(4,6-dimethyl-pyrimidin-2-yloxy)-methyl]-2-oxo-5-phenyl-2,3,4,5-tetrahydro-benzo[e][1,4]diazepin-1-ylmethyl}-benzoic acid methyl ester]	29 nM	2 nM			
COc1cc(CN2C(=O)CN[C@](c3ccccc3)([C@H](Oc3nc(OC)cc(OC)n3)C(=O)O)c3ccccc32)cc(OC)c1 (racemic) [Example 40, (±)-(S*)-[(5S*)-1-(3,5-dimethoxy-benzyl)-2-oxo-5-phenyl-2,3,4,5-tetrahydro-1H-benzo[e][1,4]diazepin-5-yl]-(4,6-dimethoxy-pyrimidin-2-yloxy)-acetic acid]	52 nM	8 nM			
COc1cc(OC)nc(O[C@H](C(=O)O)[C@@]2(c3ccccc3)NCC(=O)N(C)c3ccc(Cl)cc32)n1 (racemic) [Example 166, (±)-(1S*)-((5S*)-7-Chloro-1-methyl-2-oxo-5-phenyl-2,3,4,5-tetrahydro-1H-benzo[e][1,4]diazepin-5-yl)-(4,6-dimethoxy-pyrimidin-2-yloxy)-acetic acid]			105 nM		
